For series [1] the following is noted: oxidized form, values from references a, c, d; cited from earlier work.
The subject of series [2] is PA14. In words: Redox cycles over 7 days and support of survival (Table 1). The format is cell-based, P. aeruginosa.
Series [3] concerns PA14. In words: Reduction of redox-active compounds by PA14 (Table 1). Format: cell-based, P. aeruginosa.
Another series has as its system PodA30-162. The experiment in a line: Alternative substrate utilization by PodA. Format: biochemical, Mycobacterium fortuitum. The conditions noted are these: for demethylation of alternative substrate by PodA30-162 (HPLC end point): 50 μg mL^−1 PodA30-162, 4 hours, dark. The protocol:
Chemical formula diagrams of methylated substrates and their expected demethylated products, based on the prediction model, are shown, wherein arrows indicate demethylation catalyzed by PodA. Mixtures were analyzed by HPLC (right graphs) after 4 hours to determine the resulting products of each reaction. Standards for each product were run to determine retention times (indicated for each molecule with arrows). Only N-methylated phenazines were altered by incubation with PodA30-162. […] PMS, phenazine methosulfate.
Enzyme activity and analysis. PYO demethylation by PodA30-162 was first determined by HPLC analysis as described previously (6, 9). To detect formaldehyde evolution, 150 nM protein was mixed with 50 μM PYO in 1 mL of 20 mM Tris pH 7.6 amended with 200 μL Nash reagent (2 M ammonium acetate, 50 mM acetic acid, 20 mM acetylacetone) and incubated at 55° C. until the reaction proceeded to completion (37, 38). The products were determined by HPLC using the same method as used for phenazine quantification. To monitor the formation of reduced phenazine, protein and 50 μM PYO were placed into an anaerobic chamber (Coy Laboratory Products) under an atmosphere of H2/N2 (5:95) and left overnight before allowing the reaction to proceed. […] A BioTek Synergy 4 microplate reader (BioTek) plate reader in the anaerobic chamber was used to measure the emission spectrum of products with excitation at 250 nm. […] Reaction progress was monitored by measuring absorbance at 313 nm (40) every 0.5 seconds for 5 minutes. […] Kinetic parameters were calculated in Microsoft Excel using the Solver plug-in and fitting data to ideal Michaelis-Menton plots with non-linear regression of experimental data (41). For measurements of the rate of methoxy-PMS demethylation, 300 nM protein was used and methoxy-PMS loss from the reaction mixture was monitored at 500 nm wavelength. […] The stimulatory effects of flavin or 2-oxoglutarate addition was determined by adding 25 μM flavin or 2-oxoglutarate to 20 μM PYO and 15 nM PodA30-162 and monitoring the reaction. […]

Series [4] relates to P. aeruginosa PA14 biofilms. The experiment in a line: Biofilm formation, surface coverage (chambered coverglass, DAPI). The format is cell-based. The settings on record: 5 hours; PodA30-162 2 μg mL^−1, DNase 20 μg mL^−1; vs. PodA-inactive. The protocol: Biofilm experiments. For all experiments involving inactivated PodA, either the E154A mutant or PodA30-162 that was subjected to a 1 hour treatment at 98° C. was used. To test the ability of PodA30-162 to degrade PYO in the presence of DNA, genomic DNA (gDNA) from P. aeruginosa PA14 was used in modified versions of previously described assays (59). For experiments using DNA pellets, 0.5 mg of gDNA was pelleted in the presence of 300 mM sodium acetate, pH 5.2 and 70% ethanol. Pellets were washed with 70% ethanol and dried. 200 μL of 800 μM PYO was added to the gDNA pellet without mixing and left to sit at room temperature for 6 hours to allow for diffusion of PYO into the gDNA pellet. The pellet was washed once with 70% EtOH, and submerged in a solution containing 10 mM Tris, pH 7.0 and 40% isopropanol. The pellet remained blue, consistent with an association of PYO with DNA. PodA30-162 was added to the isopropanol solution to a final concentration of 2 μg mL^−1 and left to sit for 3 hours to allow for the reaction to proceed. Tubes were imaged before and after PodA30-162 treatment. For experiments using solubilized gDNA, a 400 μg mL^−1 solution of gDNA was mixed with PYO and allowed to equilibrate for 6 hours. The PYO gDNA mixture was amended with 1 μg mL^−1 PodA30-162 and loss of PYO was monitored on a BioTek Synergy 4 microplate reader (BioTek) plate reader at 690 nm. Standards were included to quantify PYO loss over time. To assess biofilm formation in the presence of PodA30-162, biofilms were grown in Nunc Lab-Tek chambered coverglass slides (8-well, 0.8 cm^2 area, supplier #155411) using a modified protocol (22). PA14 was inoculated into succinate minimal medium and grown overnight to stationary phase. Cells were resuspended in fresh medium and diluted to a starting OD500 of 0.5 in succinate minimal medium. PodA30-162 (2 μg mL^−1, final concentration) or DNase (20 μg mL^−1) (22) was added and 250 μL was added to each well of the 8-well chambered coverglass. Cultures were grown for 5 hours at 37° C. and 100 rpm (Innova 44 shaking incubator, New Brunswick) in a humidified chamber. After incubation, liquid was removed from each well by drawing with a pipet tip placed in the corner of each well and chambers were washed twice with 400 μL of biofilm wash (Tris buffer, pH 7.6 and 100 mM NaCl) to remove planktonic and loosely bound cells. Attached biomass was stained by adding 450 μL biofilm wash containing 10 μg mL^−1 DAPI (4′,6-diamidino-2-phenylindole) (Santa Cruz Biotechnology). Surface associated biomass was imaged on a Leica TCS SPE confocal microscope with a ACS APO 40×/1.15 oil immersion objective. A 405 nm solid-state laser was used for excitation, and data was collected from 420-500 nm. […]

Series [5] can be described thus: PYO demethylation by purified PodA30-162 and mutants (spectrophotometric/HPLC). The conditions noted are these: PYO demethylation; 60 nM mutant protein. The format is biochemical. The method, then:
Enzyme activity and analysis. PYO demethylation by PodA30-162 was first determined by HPLC analysis as described previously (6, 9). To detect formaldehyde evolution, 150 nM protein was mixed with 50 μM PYO in 1 mL of 20 mM Tris pH 7.6 amended with 200 μL Nash reagent (2 M ammonium acetate, 50 mM acetic acid, 20 mM acetylacetone) and incubated at 55° C. until the reaction proceeded to completion (37, 38). The products were determined by HPLC using the same method as used for phenazine quantification. To monitor the formation of reduced phenazine, protein and 50 μM PYO were placed into an anaerobic chamber (Coy Laboratory Products) under an atmosphere of H2/N2 (5:95) and left overnight before allowing the reaction to proceed. To generate reduced PYO and 1-OH-PHZ, 50 μM were mixed with 1 mM sodium dithionite. The formation of reduced phenazine products was assayed visually under UV illumination (39). A BioTek Synergy 4 microplate reader (BioTek) plate reader in the anaerobic chamber was used to measure the emission spectrum of products with excitation at 250 nm. To determine the activity of PodA30-162 in the presence of glycerol, salts, or varying pH, 30 nM protein was suspended in 500 μL buffer, 40 μM PYO was mixed with 2× solution containing the buffer of interest (500 μL), and solutions were preheated to 30 C. For pH range measurements, the following buffers were used (40 mM, adjusted with KOH): acetic acid, pH 4.9; MES, pH 5.4 and 5.7; HEPES, pH 6.1; Tris, pH 6.9 and 7.5; Bicine, pH 7.8, 8.3 and 8.7; CHES, pH 9.4. To measure reaction rates, cuvettes containing the 2×PYO solution were placed in a Evolution 260Bio UV-Vis spectrophotometer (Thermo Scientific) and 500 μL of 30 nM protein was added at time 0 (15 nM protein and 20 μM PYO, final concentration). Reaction progress was monitored by measuring absorbance at 313 nm (40) every 0.5 seconds for 5 minutes. To measure kinetic parameters (kcat, Km) 15 nM protein was used in a reaction buffer of Bicine, pH 7.8; reactions were monitored as before with measurements every 0.2 seconds. The rate from the first 10 seconds of the reaction was used for the determination of kinetic parameters. Kinetic parameters were calculated in Microsoft Excel using the Solver plug-in and fitting data to ideal Michaelis-Menton plots with non-linear regression of experimental data (41). For measurements of the rate of methoxy-PMS demethylation, 300 nM protein was used and methoxy-PMS loss from the reaction mixture was monitored at 500 nm wavelength. Methoxy-PMS was purchased from TCI America. For assays with mutant proteins, 60 nM protein was used. The stimulatory effects of flavin or 2-oxoglutarate addition was determined by adding 25 μM flavin or 2-oxoglutarate to 20 μM PYO and 15 nM PodA30-162 and monitoring the reaction. Experiments testing alternative substrates were carried out using 1 mL reaction volumes containing 20 mM Tris (pH 7.6) and 50 μg mL^−1 PodA30-162. Alternative substrates tested were 10-methylphenothiazine (AlfaAesar), phenazine methosulfate (AlfaAesar), methoxyphenazine methosulfate (TCI America), and 4-keto-N-ethylphenazine. 4-keto-N-ethylphenazine was synthesized from phenazine ethosulfate (Sigma-Aldrich) by incubating under fluorescent light overnight followed by purification by HPLC as described (6, 42). As phenazine methosulfate is light sensitive and spontaneously converts to PYO in the presence of light, all reactions were carried out in the dark, and activity was assessed by end point analysis by HPLC after 4 hours (9).

“Also recorded” adds a separate entry of the source. Marks after values point to notes of the source that are not given here.

In the case of `O=C1c2ccc(S(=O)(=O)O)cc2C(=O)c2ccc(S(=O)(=O)O)cc21` [2,6-AQDS], in series [1], the “E^0, (vs. NHE)” value is −184^d mV. In addition, in the series on PA14 [2], the “# of Redox cycles over 7 days” value was “No cycle” and the “Support survival?” value was “No”. Besides, the “Reduction by PA14?” value in the series on PA14 [3] is reported as “Yes (very slowly)”.
For `CCn1c2cccc(=O)c-2nc2ccccc21` [4-keto-N-ethylphenazine], in the series with PodA30-162, the “demethylation of alternative substrate by PodA30-162 (HPLC end point)” value was “not demethylated or de-ethylated”.
With `CN1c2ccccc2Sc2ccccc21` [10-methylphenothiazine], the “demethylation of alternative substrate by PodA30-162 (HPLC end point)” value with PodA30-162 was “not demethylated or de-ethylated”.
For the molecule `O=C(O)c1cccc2nc3ccccc3nc12` [PCA, Phenazine-1-carboxylate], in series [1], the “E^0, (vs. NHE)” value is reported as −114^a mV. Moreover, in the series with PA14 [2], the “# of Redox cycles over 7 days” value was 22 and the “Support survival?” value is recorded as “Yes”. Further, the “Reduction by PA14?” value in the series on PA14 [3] is reported as “Yes”.
Regarding `C[n+]1ccc(-c2cc[n+](C)cc2)cc1` [Paraquat], the “E^0, (vs. NHE)” value in series [1] is on record as −446^e mV. For the same molecule, in the series on PA14 [2], the “# of Redox cycles over 7 days” value is given as “No cycle” and the “Support survival?” value is on record as “No”. Besides, the “Reduction by PA14?” value in the series with PA14 [3] was “No”.
As to `COS(=O)(=O)[O-].COc1cccc2c1nc1ccccc1[n+]2C` [methoxy-PMS, methoxyphenazine methosulfate], the “methoxy-PMS demethylation over time” value with PodA30-162 (300 nM protein, 500 nm) is on record as “initial burst of activity followed by a slower steady state; also recorded: reaction rate slows significantly after an initial burst”.
As to DNase [reference compound], the “biofilm surface coverage” value in series [4] is listed as “inhibited biofilms; also recorded: decreased surface coverage”.

B1: Y156F (protein)
chain: MTGKTKPAIIGGVAITALAAAGLGVWLFTDGRGGRSTTEPVTMTLDVKNDQVAKHDFGKPGMDVGDMDIFSDILSVDGKQVGYDGGACFFTNVTPDNPMTYCELTIHLDAGEIFARSLTPHTLAPFTMAITGGTGEYANSKGELTVSGVATPDEKFELKLTK
Turning to B1, in series [5], the wild type activity is on record as about 25%.

(Values after patent US12241094B2, “Phenazine degrading agents and related compositions, methods and systems for interfering with viability of bacteria” (priority 2016, dated 2025).)
